For orientation: EC50 means the concentration that produces a half-maximal response. A higher EC50 goes with lower potency in that assay.

In this test the target is T1, CFTR ΔF508 mutant (Homo sapiens, UniProt P13569, DEL508-508).
T1 construct: expressed in transfected cells; host or cells: CFBE41o- (adenoviral transduction)
The experiment in a line: YFP-halide influx assay for the CFTR-ΔF508 mutation, gluconate buffer. It is filed as cell-based. Conditions: CFBE41o- cells, forskolin 10.67 μM. The text has this:
The YFP halide influx assay measures the functionality of the cystic fibrosis Transmembrane Conductance regulator (CFTR) channels in the cystic fibrosis bronchial epithelium cell line CFBE41o-. The assay is used to evaluate the capacity of compounds to increase the open probability of existing CFTR channels in the membrane. It makes use of the observation that the yellow fluorescent protein (YFP) variant YFP H148Q, I152L has its fluorescence substantially quenched by halide ions like Cl^− and I^−. (Galietta, Haggie, & Verkman, 2001) (Nagai, et al., 2002)
For this purpose, CFBE41o-cells are seeded in 96 well plates (6000 CFBE cells/well). One day after seeding, the CFBE cells are transduced with adenoviral vectors that direct the expression of the CFTR ΔF508 mutant and of the YFP reporter. Cells are incubated at 27° C., 5% CO2 for 24 hours so as to allow for the proper folding and migration to the membrane of the CFTR channel or treated with a CFTR modulator during 24 hours at 37° C.
The I^−-induced quenching of fluorescence is recorded immediately after injection of I^− for 7 seconds. The capacity of a compound to increase the channel opening is directly correlated with the decrease in fluorescence, and is expressed as (1-(fluorescence after 7 seconds (F)/fluorescence before injection (F0))) and an EC50 can be derived from a (1-F/F0) vs compound concentration plot.

T1 sequence (P13569 with tags, fused parts or gaps DEL508-508): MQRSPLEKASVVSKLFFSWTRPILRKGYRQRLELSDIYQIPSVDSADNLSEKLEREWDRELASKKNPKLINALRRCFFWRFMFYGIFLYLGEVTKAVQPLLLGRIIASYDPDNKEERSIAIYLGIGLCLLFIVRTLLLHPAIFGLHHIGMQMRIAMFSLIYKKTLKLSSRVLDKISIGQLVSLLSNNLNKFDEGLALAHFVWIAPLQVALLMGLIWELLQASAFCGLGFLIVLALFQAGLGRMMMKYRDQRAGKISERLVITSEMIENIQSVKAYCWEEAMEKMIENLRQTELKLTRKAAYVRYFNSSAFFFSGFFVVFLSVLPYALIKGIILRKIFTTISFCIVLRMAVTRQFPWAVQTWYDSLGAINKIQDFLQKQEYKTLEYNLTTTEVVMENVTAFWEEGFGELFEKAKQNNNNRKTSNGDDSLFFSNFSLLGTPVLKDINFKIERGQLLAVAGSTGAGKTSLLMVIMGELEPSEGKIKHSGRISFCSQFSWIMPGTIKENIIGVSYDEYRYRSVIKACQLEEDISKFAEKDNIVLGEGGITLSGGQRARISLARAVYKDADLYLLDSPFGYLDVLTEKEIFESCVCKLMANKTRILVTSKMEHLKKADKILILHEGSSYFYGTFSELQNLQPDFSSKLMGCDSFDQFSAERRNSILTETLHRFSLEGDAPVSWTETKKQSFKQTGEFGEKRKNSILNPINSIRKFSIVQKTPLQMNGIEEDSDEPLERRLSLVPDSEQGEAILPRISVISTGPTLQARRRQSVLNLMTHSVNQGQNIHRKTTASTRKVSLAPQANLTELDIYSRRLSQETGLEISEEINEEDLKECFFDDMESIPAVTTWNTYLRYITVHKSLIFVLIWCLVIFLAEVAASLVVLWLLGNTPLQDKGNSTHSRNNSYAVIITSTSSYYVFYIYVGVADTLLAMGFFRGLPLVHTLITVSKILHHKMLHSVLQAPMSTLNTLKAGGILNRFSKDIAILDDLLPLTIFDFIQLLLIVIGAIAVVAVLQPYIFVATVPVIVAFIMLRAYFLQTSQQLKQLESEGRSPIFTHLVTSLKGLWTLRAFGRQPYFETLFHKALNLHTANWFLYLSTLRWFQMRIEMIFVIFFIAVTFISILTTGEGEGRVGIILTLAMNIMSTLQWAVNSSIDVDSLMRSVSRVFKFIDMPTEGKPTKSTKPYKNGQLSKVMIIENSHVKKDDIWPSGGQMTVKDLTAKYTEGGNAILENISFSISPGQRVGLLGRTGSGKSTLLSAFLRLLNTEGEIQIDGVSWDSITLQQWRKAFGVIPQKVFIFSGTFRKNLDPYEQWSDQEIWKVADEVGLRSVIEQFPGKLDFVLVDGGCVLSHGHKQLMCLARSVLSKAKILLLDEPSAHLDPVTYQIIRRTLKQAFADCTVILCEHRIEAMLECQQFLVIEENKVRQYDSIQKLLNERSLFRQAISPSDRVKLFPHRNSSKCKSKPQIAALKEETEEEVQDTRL

`NC(=O)c1cc(S(=O)(=O)N2CCCCC2)sc1NC(=O)c1cnn2cccnc12` [Compound 41, N-(3-carbamoyl-5-(piperidin-1-ylsulfonyl)thiophen-2-yl)pyrazolo[1,5-a]pyrimidine-3-carboxamide] showed an EC50 of 9840 nM.

`NC(=O)c1cc(S(=O)(=O)N2CCCCC2)sc1NC(=O)C1CC1` [Compound 42, 2-(cyclopropanecarboxamido)-5-(piperidin-1-ylsulfonyl) thiophene-3-carboxamide] showed an EC50 of 739 nM.

For the compound `CC(C)(C)n1cc(C(=O)Nc2sc(S(=O)(=O)N3CCCCC3)cc2C(N)=O)cn1` [Compound 43, 1-tert-butyl-N-(3-carbamoyl-5-(piperidin-1-ylsulfonyl)thiophen-2-yl)-1H-pyrazole-4-carboxamide], the midpoint of the response, the EC50, lay at 670 nM. This EC50 and that of the compound before are within 1.5-fold of each other.

As to `NC(=O)c1cc(S(=O)(=O)N2CCCCC2)sc1NC(=O)C1CC(F)(F)C1` [Compound 44, 2-(3,3-difluorocyclobutanecarboxamido)-5-(piperidin-1-ylsulfonyl) thiophene-3-carboxamide], the concentration for a half-maximal effect (EC50) is 696 nM.

The compound `CC1(C(=O)Nc2sc(S(=O)(=O)N3CCOCC3)cc2C(N)=O)CC1` [Compound 45, 2-(1-methylcyclopropanecarboxamido)-5-(morpholinosulfonyl) thiophene-3-carboxamide] displayed a 50% effective concentration (EC50) of 1280 nM.

Consider `NC(=O)c1cc(S(=O)(=O)N2CCOCC2)sc1NC(=O)c1ccccc1F` [Compound 46, 2-(2-fluorobenzamido)-5-(morpholinosulfonyl) thiophene-3-carboxamide], for which the EC50 amounted to 284 nM.

Consider `CC(C)(C)C(=O)Nc1sc(S(=O)(=O)N2CCOCC2)cc1C(N)=O` [Compound 47, 5-(morpholinosulfonyl)-2-pivalamidothiophene-3-carboxamide], for which the 50% effective concentration (EC50) was determined as 2660 nM.

`COc1ccccc1C(=O)Nc1sc(S(=O)(=O)N2CCOCC2)cc1C(N)=O` [Compound 48, 2-(2-methoxybenzomido)-5-(morpholinosulfonyl) thiophene-3-carboxamide]: the EC50 amounted to 253 nM.

As for `CC(C)(C)c1ccc(C(=O)Nc2sc(S(=O)(=O)N3CCOCC3)cc2C(N)=O)cc1` [Compound 49, 2-(4-tert-butylbenzamido)-5-(morpholinosulfonyl) thiophene-3-carboxamide], the EC50 worked out at 842 nM.

`NC(=O)c1cc(S(=O)(=O)N2CCOCC2)sc1NC(=O)c1cc2ccccc2s1` [Compound 50, N-(3-carbamoyl-5-(morpholinosulfonyl)thiophen-2-yl)benzo[b] thiophene-2-carboxamide] came in with an EC50 of 391 nM.

With `CC(C)(C)c1ccc(C(=O)Nc2sc(S(=O)(=O)N3CCOCC3)cc2C(N)=O)s1` [Compound 51, 5-tert-butyl-N-(3-carbamoyl-5-(morpholinosulfonyl)thiophen-2-yl) thiophene-2-carboxamide], the concentration for a half-maximal effect (EC50) came out at 599 nM.

`NC(=O)c1cc(S(=O)(=O)N2CCCCC2)sc1NC(=O)c1ccccc1C1CC1` [Compound 52, 2-(2-cyclopropylbenzamido)-5-(piperidin-1-ylsulfonyl) thiophene-3-carboxamide] registered a half-maximal effective concentration (EC50) of 204 nM.

In turn, `NC(=O)c1cc(S(=O)(=O)N2CCCCC2)sc1NC(=O)c1cccc(-n2cccn2)c1` [Compound 53, 2-(3-(1H-pyrazol-1-yl)benzamido)-5-(piperidin-1-ylsulfonyl)thiophene-3-carboxamide] had an EC50 of 1260 nM.

`NC(=O)c1cc(S(=O)(=O)N2CCCCC2)sc1NC(=O)c1cccc(-c2cc[nH]n2)c1` [Compound 54, 2-(3-(1H-pyrazol-3-yl)benzamido)-5-(piperidin-1-ylsulfonyl)thiophene-3-carboxamide] gave an EC50 of 3160 nM.

In the case of `NC(=O)c1cc(S(=O)(=O)N2CCCC2)sc1NC(=O)c1cc2ccccc2s1` [Compound 55, N-(3-carbamoyl-5-(pyrrolidini-1-ylsulfonyl)thiophen-2-yl)benzo[b] thiophene-2-carboxamide], the EC50 stood at 3330 nM.

The compound `NC(=O)c1cc(S(=O)(=O)N2CCCC2)sc1NC(=O)c1cc[nH]n1` [Compound 56, N-(3-carbamoyl-5-(pyrrolidin-1-ylsulfonyl)thiophen-2-yl)-1H-pyrazole-3-carboxamide] registered an EC50 of 206 nM.

Turning to `NC(=O)c1cc(S(=O)(=O)N2CCCCC2)sc1NC(=O)C1(c2ccccc2)CC1` [Compound 57, 2-(1-phenylcyclopropanecarboxamido)-5-(piperidin-1-ylsulfonyl) thiophene-3-carboxamide], a half-maximal response (EC50) required 2490 nM.

Compound `N#CC1(C(=O)Nc2sc(S(=O)(=O)N3CCCCC3)cc2C(N)=O)CC1` [Compound 58, 2-(1-cyanocyclopropanecarboxamido)-5-(piperidin-1-ylsulfonyl) thiophene-3-carboxamide] gave an EC50 of 3330 nM.

In turn, `NC(=O)c1cc(S(=O)(=O)N2CCCCC2)sc1NC(=O)c1cscn1` [Compound 59, N-(3-carbamoyl-5-(piperidin-1-ylsulfonyl)thiophen-2-yl)thiazole-4-carboxamide] gave an EC50 of 182 nM.

Turning to `NC(=O)c1cc(S(=O)(=O)N2CCCCC2)sc1NC(=O)c1cnn2ccccc12` [Compound 60, N-(3-carbamoyl-5-(piperidin-1-ylsulfonyl)thiophen-2-yl)pyrazolo[1,5-a]pyridine-3-carboxamide], the midpoint of the response, the EC50, lay at 1900 nM.

`NC(=O)c1cc(S(=O)(=O)N2CCCCC2)sc1NC(=O)C1(c2ccc(Cl)cc2)CC1` [Compound 61, 2-(1-(4-chlorophenyl)cyclopropanecarboxamido)-5-(piperidin-1-ylsulfonyl) thiophene-3-carboxamide] showed an EC50 above 1000 nM.

`NC(=O)c1cc(S(=O)(=O)N2CCCCC2)sc1NC(=O)c1cncs1` [Compound 62, N-(3-carbamoyl-5-(piperidin-1-ylsulfonyl)thiophen-2-yl)thiazole-5-carboxamide]: the concentration for a half-maximal effect (EC50) turned out to be 2180 nM. This counts as single-digit micromolar.

In turn, `NC(=O)c1cc(S(=O)(=O)N2CCOCC2)sc1NC(=O)c1cc[nH]n1` [Compound 63, N-(3-carbamoyl-5-(morpholinosulfonyl)thiophen-2-yl)-1H-pyrazole-3-carboxamide] returned an EC50 of 251 nM.

Compound `NC(=O)c1cc(S(=O)(=O)N2CCCCC2)sc1NC(=O)c1ccc(-c2cccnc2)s1` [Compound 64, N-(3-carbamoyl-5-(piperidin-1-ylsulfonyl)thiophen-2-yl)-5-(pyridin-3-yl)thiphene-2-carboxamide] displayed an EC50 of 2160 nM.

Turning to `CC(C)(C)c1ccc(C(=O)Nc2sc(S(=O)(=O)N3CCC(F)(F)CC3)cc2C(N)=O)cc1` [Compound 65, 2-(4-tert-butylbenzamido)-5-(4,4-difluoropiperidin-1-ylsulfonyl)thiophene-3-carboxamide], a half-maximal response (EC50) required 1570 nM.

For the compound `NC(=O)c1cc(S(=O)(=O)N2CCC(F)(F)CC2)sc1NC(=O)c1ccccc1F` [Compound 66, 5-(4,4-difluoropiperidin-1-ylsulfonyl)-2-(2-fluorobenzamido)thiophene-3-carboxamide], the response was half-maximal at 153 nM (EC50).

As for `CC(C)(C)C(=O)Nc1sc(S(=O)(=O)N2CCC(F)(F)CC2)cc1C(N)=O` [Compound 67, 5-(4,4-difluoropiperidin-1-ylsulfonyl)-2-pivalamidothiophene-3-carboxamide], the response was half-maximal at 250 nM (EC50).

`CC(C)(C)c1cc(C(=O)Nc2sc(S(=O)(=O)N3CCOCC3)cc2C(N)=O)n[nH]1` [Compound 68, 5-tert-butyl-N-(3-carbamoyl-5-(morpholinosulfonyl)thiophen-2-yl)-1H-pyrazole-3-carboxamide] yielded an EC50 of 129 nM.

`CCc1cc(C(=O)Nc2sc(S(=O)(=O)N3CCOCC3)cc2C(N)=O)n[nH]1` [Compound 69, N-(3-carbamoyl-5-(morpholinosulfonyl)thiophen-2-yl)-5-ethyl-1H-pyrazole-3-carboxamide] gave an EC50 of 147 nM.

For the compound `COc1cc(Nc2ccccc2)ccc1C(=O)Nc1sc(S(=O)(=O)N2CCOCC2)cc1C(N)=O` [Compound 70, 2-(2-methoxy-4-(phenylamino)benzamido)-5-(morpholinosulfonyl) thiophene-3-carboxamide], the EC50 turned out to be 921 nM.

As for `CN(Cc1ccccc1)S(=O)(=O)c1cc(C(N)=O)c(NC(=O)C2(c3ccc4c(c3)OC(F)(F)O4)CC2)s1` [Compound 71, 5-(N-benzyl-N-methylsulfamoyl)-2-(1-(2,2-difluorobenzo[d][1,3]dioxol-5-yl)cyclopropanecarboxamido) thiophene-3-carboxamide], the 50% effective concentration (EC50) turned out to be 797 nM.

`CN(Cc1ccccc1)S(=O)(=O)c1cc(C(N)=O)c(NC(=O)c2ccccc2F)s1` [Compound 72, 5-(N-benzyl-N-methylsulfamoyl)-2-(2-fluorobenzamido) thiophene-3-carboxamide]: the EC50 is 326 nM.

For `CN(C)S(=O)(=O)c1cc(C(N)=O)c(NC(=O)c2ccccc2F)s1` [Compound 74, 5-(N,N-dimethylsulfamoyl)-2-(2-fluorobenzamido) thiophene-3-carboxamide], the EC50 came to 135 nM.

`CN(C)S(=O)(=O)c1cc(C(N)=O)c(NC(=O)c2cc[nH]n2)s1` [Compound 75, N-(3-carbamoyl-5-(N,N-dimethylsulfamoyl)thiophen-2-yl)-1H-pyrazole-3-carboxamide] returned a concentration giving a half-maximal response (EC50) of 418 nM. This EC50 lies about 3.1-fold higher than the previous one.

Consider `NC(=O)c1cc(S(=O)(=O)N2CCOCC2)sc1NC(=O)c1cscn1` [Compound 76, N-(3-carbamoyl-5-(morpholinosulfonyl)thiophen-2-yl)thiazole-4-carboxamide], for which the EC50 worked out at 621 nM.

Source of the values: patent publication US9382254B2, “Compounds and pharmaceutical compositions thereof for the treatment of cystic fibrosis” (Galapagos NV, priority 2013, dated 2016).
